From US20250382344A1, “Soluble GLP1/GIP/NPY2 Receptor Triple Agonists” (Boehringer Ingelheim International GmH, priority 2024, published 2025)
Like-named read-outs stand apart in the source and are kept apart here.

Columns and labels:
[1] = molecular target: T1, hGIPR (Homo sapiens, UniProt P48546); test: hGIPR CreLuc assay in 0.5% and 100% plasma (CHO CRE-luciferase reporter cells); format: cell-based; details: 0.5% human plasma, read-out: hGIPR 0.5% hP
T1 construct: expressed in transfected cells; host or cells: CHO CRE-luciferase reporter cells
T1 sequence (P48546 22-466): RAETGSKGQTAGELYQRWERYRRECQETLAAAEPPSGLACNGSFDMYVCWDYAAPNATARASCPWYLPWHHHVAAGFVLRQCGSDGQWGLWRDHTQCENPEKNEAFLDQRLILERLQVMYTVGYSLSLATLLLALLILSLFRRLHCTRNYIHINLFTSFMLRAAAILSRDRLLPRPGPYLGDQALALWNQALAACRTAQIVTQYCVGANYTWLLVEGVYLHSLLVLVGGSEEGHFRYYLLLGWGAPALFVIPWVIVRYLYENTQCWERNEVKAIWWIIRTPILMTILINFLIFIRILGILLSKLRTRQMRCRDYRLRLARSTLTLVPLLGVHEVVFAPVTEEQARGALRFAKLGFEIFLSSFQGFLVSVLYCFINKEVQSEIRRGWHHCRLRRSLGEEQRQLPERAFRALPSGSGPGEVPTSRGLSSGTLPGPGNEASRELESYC

[2] = molecular target: T2, hNPY2R (Homo sapiens, UniProt P49146); test: hNPY2R CreLuc assay in 0.5% and 100% plasma (HEK-293 CRE-luciferase reporter cells); format: cell-based; details: HEK-293 reporter cells
T2 construct: expressed in transfected cells; host or cells: HEK-293 CRE-luciferase reporter cells
T2 sequence (P49146 1-381): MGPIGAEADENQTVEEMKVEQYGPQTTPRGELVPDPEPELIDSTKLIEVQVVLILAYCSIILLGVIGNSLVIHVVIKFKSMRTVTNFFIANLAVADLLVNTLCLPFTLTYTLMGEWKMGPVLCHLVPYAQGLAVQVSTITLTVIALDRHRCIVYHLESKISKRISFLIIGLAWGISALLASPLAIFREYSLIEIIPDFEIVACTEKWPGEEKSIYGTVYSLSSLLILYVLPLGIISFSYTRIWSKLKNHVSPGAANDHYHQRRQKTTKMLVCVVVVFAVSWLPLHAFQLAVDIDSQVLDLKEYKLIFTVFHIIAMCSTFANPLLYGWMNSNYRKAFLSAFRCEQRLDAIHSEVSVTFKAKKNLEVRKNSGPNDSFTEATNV
Source text: CHO and HEK-293 recombinant cell lines express a luciferase reporter gene under control of the CAMP responsive element (CRE). As a second recombinant protein the GLP-1 and NPY2 receptors were expressed in the reporter gene HEK cells, and the GIP receptor was expressed in the reporter gene CHO cells, respectively. Stimulation of these recombinant cells with an agonist leads to an increase of intracellular CAMP levels. In the presence of CAMP, the transcription factor CRE binding protein (CREB) binds to the CRE and to the CREB binding protein (CBP), which leads to transcription of the luciferase reporter gene. Peptides upon serial-dilution in 100% DMSO were transferred into 384-well assay plates with 5 μl pre-dispensed assay buffer (1×HBSS, 20 mM HEPES, pH7.4 supplemented with 0.5% human plasma) using acoustic dispensing on a Labcyte ECHO. Cryo-preserved transgenic reporter gene cells were thawed in assay buffer. 20 μl (10.000 cells/well) were added to the plate with the peptides and incubated for 4 hours at 37° C. in a humidified incubator. Following incubation, assay plates are equilibrated to room temperature, followed by addition of 25 μl of Bright-Glo™ Luciferase reagent, incubation at room temperature for 10 minutes and analysis of luminescence (Envision Reader). […] EC50 values were calculated by non-linear regression using sigmoid concentration-response with variable slope.
The same assays were run in the presence of 100% plasma with no additional buffer constituents.

[3] = Solubility in 0.1 M phosphate buffer at pH 7; format: physicochemical; details: 0.1 M phosphate buffer at pH 7, 10 mg/mL final peptide concentration, shaking 2 hours at room temperature, peptides as TFA-salts; measured sample pH 6.5-7.0
[4] = 0.5% human plasma, read-out: hNPY2R 0.5% hP
[5] = 100% human plasma, read-out: hNPY2R 100% hP

| EC50 [1] | EC50 [2, 4] | EC50 [2, 5] | solubility at 2 h [3] | Structure (SMILES) |
| --- | --- | --- | --- | --- |
| 0.7 nM | 13.3 nM | 20.3 nM | 3900 µg/mL | CC[C@H](C)[C@H](NC(=O)[C@H](CO)NC(=O)[C@H](Cc1ccc(O)cc1)NC(=O)[C@H](CC(=O)O)NC(=O)[C@H](CO)NC(=O)[C@@H](NC(=O)[C@H](Cc1ccccc1)NC(=O)[C@@H](NC(=O)CNC(=O)[C@H](CCC(=O)O)NC(=O)C(C)(C)NC(=O)[C@@H](N)Cc1ccc(O)cc1)[C@@H](C)O)[C@@H](C)O)C(=O)NC(C)(C)C(=O)N[C@@H](CC(C)C)C(=O)N[C@@H](CCC(=O)O)C(=O)N[C@@H](CCCCN)C(=O)N[C@@H](CCC(N)=O)C(=O)N[C@@H](C)C(=O)N[C@@H](CCC(N)=O)C(=O)NC(C)(C)C(=O)N[C@@H](C)C(=O)N[C@@H](Cc1ccccc1)C(=O)N[C@H](C(=O)N[C@@H](CCCNC(=N)N)C(=O)N[C@@H](Cc1c[nH]cn1)C(=O)N[C@@H](CC(C)C)C(=O)N[C@@H](CC(C)C)C(=O)N[C@@H](CC(N)=O)C(=O)N[C@@H](CCCCNC(=O)[C@@H](N)CCCCNC(=O)CC[C@H](NC(=O)CC[C@H](NC(=O)CC[C@H](NC(=O)CC[C@H](NC(=O)CC[C@H](NC(=O)CC[C@H](NC(=O)CCCCCCCCCCCCCCCCC(=O)O)C(=O)O)C(=O)O)C(=O)O)C(=O)O)C(=O)O)C(=O)O)C(=O)NC(C)(C)C(=O)N[C@H](C(=O)N[C@@H](CCCNC(=N)N)C(=O)N[C@@H](CCC(N)=O)C(=O)N[C@@H](CCCNC(=N)N)C(=O)N[C@@H](Cc1ccc(O)cc1)C(N)=O)[C@@H](C)O)C(C)C [Compound 107, Y-Aib-E-G-T-F-T-S-D-Y-S-I-Aib-L-E-K-Q-A-Q-Aib-A-F-V-R-H-L-L-N-K(1,3)-Aib-T-R-Q-R-Y-NH2.C18DA-gGlu-gGlu-gGlu-gGlu-gGlu-gGlu-eLys(1,2)] |
| 0.6 nM | – | 131 nM | 4300 µg/mL | CC[C@H](C)[C@H](NC(=O)[C@H](CC(C)C)NC(=O)[C@H](Cc1c[nH]cn1)NC(=O)[C@H](CCCNC(=N)N)NC(=O)[C@@H](NC(=O)[C@H](Cc1ccccc1)NC(=O)[C@H](C)NC(=O)C(C)(C)NC(=O)[C@H](CCC(N)=O)NC(=O)[C@H](C)NC(=O)[C@H](CCC(N)=O)NC(=O)[C@H](CCCCN)NC(=O)[C@H](CCC(=O)O)NC(=O)[C@H](CC(C)C)NC(=O)C(C)(C)NC(=O)[C@@H](NC(=O)[C@H](CO)NC(=O)[C@H](Cc1ccc(O)cc1)NC(=O)[C@H](CC(=O)O)NC(=O)[C@H](CO)NC(=O)[C@@H](NC(=O)[C@H](Cc1ccccc1)NC(=O)[C@@H](NC(=O)CNC(=O)[C@H](CCC(=O)O)NC(=O)C(C)(C)NC(=O)[C@@H](N)Cc1ccc(O)cc1)[C@@H](C)O)[C@@H](C)O)[C@@H](C)CC)C(C)C)C(=O)N[C@@H](CC(N)=O)C(=O)N[C@@H](CCCCNC(=O)CC[C@H](NC(=O)CC[C@H](NC(=O)CC[C@H](NC(=O)CC[C@H](NC(=O)CC[C@H](NC(=O)CC[C@H](NC(=O)[C@H]1CC[C@H](CNC(=O)CCCCCCCCCCCCCCCCC(=O)O)CC1)C(=O)O)C(=O)O)C(=O)O)C(=O)O)C(=O)O)C(=O)O)C(=O)NC(C)(C)C(=O)N[C@H](C(=O)N[C@@H](CCCNC(=N)N)C(=O)N[C@@H](CCC(N)=O)C(=O)N[C@@H](CCCNC(=N)N)C(=O)N[C@@H](Cc1ccc(O)cc1)C(N)=O)[C@@H](C)O [Compound 31, Y-Aib-E-G-T-F-T-S-D-Y-S-I-Aib-L-E-K-Q-A-Q-Aib-A-F-V-R-H-L-I-N-K(1,3)-Aib-T-R-Q-R-Y-NH2.C18DA-TRX-gGlu-gGlu-gGlu-gGlu-gGlu-gGlu(1,2)] |
| 0.4 nM | 43.8 nM | – | 4600 µg/mL | CC[C@H](C)[C@H](NC(=O)[C@H](CC(C)C)NC(=O)[C@H](Cc1c[nH]cn1)NC(=O)[C@H](CCCNC(=N)N)NC(=O)[C@@H](NC(=O)[C@H](Cc1ccccc1)NC(=O)[C@H](C)NC(=O)[C@H](CCC(=O)O)NC(=O)[C@H](CCC(N)=O)NC(=O)[C@H](C)NC(=O)[C@H](CCC(N)=O)NC(=O)[C@H](CCCCN)NC(=O)[C@H](CCC(=O)O)NC(=O)[C@H](CC(C)C)NC(=O)C(C)(C)NC(=O)[C@@H](NC(=O)[C@H](CO)NC(=O)[C@H](Cc1ccc(O)cc1)NC(=O)[C@H](CC(=O)O)NC(=O)[C@H](CO)NC(=O)[C@@H](NC(=O)[C@H](Cc1ccccc1)NC(=O)[C@@H](NC(=O)CNC(=O)[C@H](CCC(=O)O)NC(=O)C(C)(C)NC(=O)[C@@H](N)Cc1ccc(O)cc1)[C@@H](C)O)[C@@H](C)O)[C@@H](C)CC)C(C)C)C(=O)N[C@@H](CC(N)=O)C(=O)N[C@@H](CCCCNC(=O)[C@@H](N)CCCCNC(=O)CC[C@H](NC(=O)CC[C@H](NC(=O)CC[C@H](NC(=O)CC[C@H](NC(=O)CC[C@H](NC(=O)CC[C@H](NC(=O)CCCCCCCCCCCCCCCCC(=O)O)C(=O)O)C(=O)O)C(=O)O)C(=O)O)C(=O)O)C(=O)O)C(=O)NC(C)(C)C(=O)N[C@H](C(=O)N[C@@H](CCCNC(=N)N)C(=O)N[C@@H](CCC(N)=O)C(=O)N[C@@H](CCCNC(=N)N)C(=O)N[C@@H](Cc1ccc(O)cc1)C(N)=O)[C@@H](C)O [Compound 170, Y-Aib-E-G-T-F-T-S-D-Y-S-I-Aib-L-E-K-Q-A-Q-E-A-F-V-R-H-L-I-N-K(1,3)-Aib-T-R-Q-R-Y-NH2.C18DA-gGlu-gGlu-gGlu-gGlu-gGlu-gGlu-eLys(1,2)] |
| 0.8 nM | 41.3 nM | – | 10000 µg/mL | CC[C@H](C)[C@H](NC(=O)[C@H](CO)NC(=O)[C@H](Cc1ccc(O)cc1)NC(=O)[C@H](CC(=O)O)NC(=O)[C@H](CO)NC(=O)[C@@H](NC(=O)[C@H](Cc1ccccc1)NC(=O)[C@@H](NC(=O)CNC(=O)[C@H](CCC(=O)O)NC(=O)C(C)(C)NC(=O)[C@@H](N)Cc1ccc(O)cc1)[C@@H](C)O)[C@@H](C)O)C(=O)N[C@@H](C)C(=O)N[C@@H](CC(C)C)C(=O)N[C@@H](CCC(=O)O)C(=O)N[C@@H](CCCCN)C(=O)N[C@@H](CCC(N)=O)C(=O)N[C@@H](C)C(=O)N[C@@H](CCC(N)=O)C(=O)NC(C)(C)C(=O)N[C@@H](C)C(=O)N[C@@H](Cc1ccccc1)C(=O)N[C@H](C(=O)N[C@@H](CCCNC(=N)N)C(=O)N[C@@H](Cc1c[nH]cn1)C(=O)N[C@@H](CC(C)C)C(=O)N[C@H](C(=O)N[C@@H](CC(N)=O)C(=O)N[C@@H](CCCCNC(=O)CC[C@H](NC(=O)CC[C@H](NC(=O)CC[C@H](NC(=O)CC[C@H](NC(=O)CC[C@H](NC(=O)CC[C@H](NC(=O)CCCCCCCCCCCCCCCCCCC(=O)O)C(=O)O)C(=O)O)C(=O)O)C(=O)O)C(=O)O)C(=O)O)C(=O)NC(C)(C)C(=O)N[C@H](C(=O)N[C@@H](CCCNC(=N)N)C(=O)N[C@@H](CCC(N)=O)C(=O)N[C@@H](CCCNC(=N)N)C(=O)N[C@@H](Cc1ccc(O)cc1)C(N)=O)[C@@H](C)O)[C@@H](C)CC)C(C)C [Compound 29, Y-Aib-E-G-T-F-T-S-D-Y-S-I-A-L-E-K-Q-A-Q-Aib-A-F-V-R-H-L-I-N-K(1,3)-Aib-T-R-Q-R-Y-NH2.C20DA-gGlu-gGlu-gGlu-gGlu-gGlu-gGlu(1,2)] |
